Reference: patent publication US20060036073A1, “Neurotrophic and neuroprotective peptides” (priority 2002, published 2006)
Where a SMILES comes first, the peptide text is derived from it. Where no end group is shown, it is not given here.

What was measured:
[1] = system: cortical neurons that are obtained from chicken embryos; experiment: Summary of the screening over all neuroprotection assays; assay type: cell-based; conditions: for Active in: (number of assays): Table 2 summary
Experimental: Since the targets of the therapy with the peptides presented according to the invention are various neurodegenerative diseases, different model systems for detecting the biological activity of the peptides according to the invention in the case of neurodegenerative diseases were used. Later, the individually used model systems and the results thus achieved are described. […] That is to say, the implementation of the tests was carried out on different days with different cell preparations and by different individuals. For some peptides, two numbers were issued (#1=#23 or #6=#35 or #7=#43), but the results with these peptides were only shown once. […] With some other substances, there were problems in the production, and thus only small amounts were available, and it was not possible to test the substances in all the assays (#12, 14, 17, 35 and #48). […] As could be seen from the figures, the standard deviations, i.e., the fluctuations between the independent experiments, are to some extent quite large. These fluctuations can be attributed to stability problems. These peptides are the peptides that are preferred within the scope of the invention.

[2] = system: cortical neurons that are obtained from chicken embryos; experiment: Chronic disruption of the calcium metabolism by ionomycin, neuron viability by MTT; assay type: cell-based; conditions: ionomycin 10 μM, 24 hours
Experimental: It is common to these biological test systems that cortical neurons that are obtained from chicken embryos are cultivated in culture plates for eight days and then are exposed to a specific noxa (Pettmann et al., Nature 281 (5730): 378-80 [1979]).
To this end, a one-day-old, fertilized hen's egg is incubated for eight days at +12 +/− 0.1° C. and 80 +/− 5% atmospheric humidity. On the embryonal day 0, the eggs are transferred into an incubator and incubated up to the embryonal day 8 at 38 +/− 0.5° C. and 55 +/− 5%. After the brains are removed, the cortices are isolated, homogenized, and neurons are taken into primary culture (culture conditions: Dulbecco's Modified Eagle's Medium, 20% v/v fetal calf serum, 0.01% gentamicin, 1 g/l of glucose, 2 mmol of L-glutamine, +37° C., 5% CO2 and 95% atmospheric humidity). […] After the end of the specified stress period, the proportion of the still living neurons is determined with a metabolic colorimetric assay (the reaction of the yellow chromophore MTT to a blue formazan product is carried out only by living cells).
It is expected that in the case of various neurodegenerative diseases, chronic calcium overloading occurs because of metabolic malfunctions, which ultimately produces cell death via the activation of various enzyme systems. […]

[3] = system: cortical neurons that are obtained from chicken embryos; experiment: Serum-withdrawal assay (2% assay), neuron viability by MTT; assay type: cell-based
Experimental: This simulates the disruptions in the stimulation of neurons with nerve growth factors that are assumed to be one of the possible causes of neurodegenerative diseases. The effectiveness of the new peptides in preventing cell death was measured.

[4] = system: amyloid-beta peptides (β-amyloid 25-35) / nerve cell cultures; experiment: Amyloid-beta aggregation assay (peptide added to fresh amyloid-beta solution, effect on nerve cell cultures); assay type: cell-based, chicken; conditions: for AβP reagg. (diff vs C): difference vs control, only one round of testing
Experimental: Beta-Amyloid peptides represent, in aggregated form, a potent neurotoxin whose addition to the nerve cell cultures results in a quick and progressive cell death. Since beta-amyloid peptides constitute an essential role in the pathogenesis of Alzheimer's disease, this model can be considered especially relevant.
This biological test is a process for testing anti-aggregatory substance potential that is specially developed for this project. The newly synthesized peptides are added directly to a fresh solution of amyloid-beta peptides to prevent the formation of neurotoxic aggregates. The effect that aggregates that still develop have on growth and survival of nerve cell cultures is the measurement parameter.

Compound | effectiveness across the screening assays (in words) [1] | Active in: (number of assays) [1] | further results
DVFMK [BH#32] | not effective in any assay |  | 
Ac-SMAKEGV [BH#8, SMAKEGV] |  | 5 of 7 | action in models of pathological processes of neurodegenerative diseases (in words) [1]: excellent action; increase in cell vitality to [2]: about 150%
MDVFMKGLSM [BH#16, MDVFMKGLSM] |  | 4 of 7 | effects over the effects of the control (=100%) [3]: 150%
CSCC[C@H](NC(=O)[C@H](Cc1ccccc1)NC(=O)[C@@H](NC(=O)[C@@H](N)CC(=O)O)C(C)C)C(=O)O [BH#33, DVFM] (H-DVFM-OH; N-terminus and C-terminus assumed) | effective in only one screening assay |  | 
GLS [BH#41] | not effective in any assay |  | 
DVFMKGL [BH#30, DVFMKGL] | effective in only one screening assay |  | 
MDVFMK [BH#20, MDVFMK] | effective in only one screening assay |  | 
CC(C)[C@H](NC(=O)[C@@H](N)CC(=O)O)C(=O)N[C@@H](Cc1ccccc1)C(=O)O [BH#34, DVF] (H-Asp-Val-Phe-OH) |  |  | AβP reagg. (diff vs C) [4]: 19%; increase in cell vitality to [2]: about 150%
GLSMA [BH#39] | effective in only one screening assay |  | 
LSMAKE [BH#45, LSMAKE] | effective in only one screening assay |  | 
LSMAKEGV [BH#7, LSMAKEGV] |  |  | effects over the effects of the control (=100%) [3]: approximately 450%
LSMAK [BH#46, LSMAK] |  | 2 of 7 | action in models of pathological processes of neurodegenerative diseases (in words) [1]: excellent action
MDVFMKGL [BH#18] | not effective in any assay |  | 
DVFMKGLSM [BH#28, DVFMKGLSM] |  | 4 of 7 | 
GLSMAKE [BH#37, GLSMAKE] |  |  | effects over the effects of the control (=100%) [3]: 150%
MDVFMKG [BH#19, MDVFMKG] |  |  | AβP reagg. (diff vs C) [4]: 20%
DVFMKGLSMA [BH#27, DVFMKGLSMA] |  | 4 of 7 | 
DVFMKGLSMAK [BH#26] |  | 2 of 7 | increase of neuronal vitality by ([4]; β-amyloid 25-35, peptide added to fresh amyloid solution): 74%
